According to US11319526B2, “Methods and compositions for making antibodies and antibody derivatives with reduced core fucosylation” (Seagen Inc., priority 2008, dated 2022):
Like-named read-outs stand apart in the source and are kept apart here.

System: antibody core fucosylation in CHO DG44 cell line producing h1F6
Assay: Effect of fucose analogs on antibody core fucosylation (h1F6 from CHO DG44 culture)
Type: cell-based, Chinese hamster
Conditions: day 5; for inhibition at 50 µM: 50 μM fucose analog; for inhibition at 1000 µM / Inhibition at 1 mM: 1 mM fucose analog
Experimental: Media was supplemented with insulin like growth factor (IGF), penicillin, streptomycin and either 1 mM or 50 μM of the fucose analog (prepared as described supra). On day 5 post inoculation, the culture was centrifuged at 13000 RPM for 5 minutes to pellet cells; antibodies were then purified from supernatant.
Antibody purification was performed by applying the conditioned media to protein A resin pre-equilibrated with 1× phosphate buffered saline (PBS), pH 7.4. After washing resin with 20 resin bed volumes of 1×PBS, antibodies were eluted with 5 resin bed volumes of Immunopure IgG elution buffer (Pierce Biotechnology, Rockford, Ill.). A 10% volume of 1M tris pH 8.0 was added to neutralize the eluted fraction.

[1] = Cricetulus griseus, CHO-DG44, 120 h, Table 1, inhibition of core fucosylation of h1F6, read-out: Inhibition at 50 μM
[2] = Table 1, inhibition of core fucosylation of h1F6
[3] = Cricetulus griseus, CHO-DG44, 120 h, Table 2, read-out: Inhibition at 50 μM
[4] = Cricetulus griseus, CHO-DG44, 120 h, Table 2
[5] = Cricetulus griseus, CHO-DG44, 120 h, Table 1, ND = non-core fucosylated antibody not detected due to poor antibody production or inhibition of cell growth
[6] = Table 1, ND = non-core fucosylated antibody not detected due to poor antibody production or inhibition of cell growth

SMILES | inhibition at 50 µM [1] [%] | inhibition at 50 µM [3] [%] | inhibition at 1000 µM [4] [%] | also measured
CC(=O)OC1OC(C#N)[C@@H](OC(C)=O)[C@@H](OC(C)=O)[C@@H]1OC(C)=O (stereo partly drawn) [5-cyanoarabinopyranose tetraacetate] | 20 | – | – | –
C#CC(O)[C@@H](O)[C@@H](O)[C@H](O)C=O (stereo partly drawn) [Alkynyl fucose, 5-ethynylarabinose] | > 80 | – | – | –
CC(=O)OC(C#N)[C@H]1OC(OC(C)=O)[C@@H](OC(C)=O)[C@@H]1OC(C)=O (stereo partly drawn) [5-cyanoarabinofuranose tetraacetate] | 5 to 10 | – | – | –
C#CC1OC(OC(=O)C(C)(C)C)C(O)C(OC(=O)C(C)(C)C)C1O (stereo not drawn) [Alkynyl fucose di(trimethylacetate), 5-ethynylarabinose 1,3-(trimethylacetate)] | – | – | – | inhibition at 50 µM [2]: >80%
CC(=O)O[C@@H]1[C@H](C)O[C@H](OC(C)=O)C(F)(F)[C@@H]1OC(C)=O [(2R,4R,5R,6S)-3,3-difluoro-6-methyl-tetrahydro-2H-pyran-2,4,5-triyl Triacetate] | – | 0 | 75 | –
CC(=O)OC1O[C@@H](C)[C@@H](OC(C)=O)[C@@H](OC(C)=O)[C@@H]1F (stereo partly drawn) [2-deoxy-2-fluorofucose peracetate, (3S,4R,5R,6S)-3-fluoro-6-methyl-tetrahydro-2H-pyran-2,4,5-triyl Triacetate] | – | > 80 | > 80 | –
C#C[C@@H]1OC(OC(=O)c2cccnc2)[C@@H](OC(=O)c2cccnc2)[C@H](OC(=O)c2cccnc2)[C@@H]1OC(=O)c1cccnc1 (stereo partly drawn) [Alkynyl fucose pemicotinate, (3S,4R,5R,6S)-6-ethynyl-tetrahydro-2H-pyran-2,3,4,5-tetrayl Tetranicotinate] | > 80 | – | – | inhibition at 1000 µM [5]: > 80%
CC(=O)OC1O[C@@H](COCc2ccccc2)[C@@H](OC(C)=O)[C@@H](OC(C)=O)[C@@H]1OC(C)=O (stereo partly drawn) [5-Benzyloxy fucose peracetate, (3S,4R,5R,6S)-6-(benzyloxymethyl)tetrahydro-2H-pyran-2,3,4,5-tetrayl tetraacetate] | – | 0 | 75 | –
C#CC(OC(=O)CCCCC)[C@@H](OC(=O)CCCCC)[C@@H](OC(=O)CCCCC)[C@@H](C=O)OC(=O)CCCCC (stereo partly drawn) [Alkynyl fucose tetra-n-hexanoate, 5-ethynylarabinose tetrahexanoate] | > 80 | – | – | inhibition at 1000 µM [5]: > 80%
C[C@H](O)[C@@H](O)[C@@H](O)[C@H](F)C=O [2-deoxy-2-fluorofucose] | – | > 80 | > 80 | –
C#C[C@@H]1OC(OC(=O)CC)[C@@H](OC(=O)CC)[C@H](OC(=O)CC)[C@@H]1OC(=O)CC (stereo partly drawn) [Alkynyl fucose tetrapropanonate, 5-ethynylarabinose tetrapropropanoate] | – | – | – | inhibition at 50 µM [2]: >80%; Inhibition at 1 mM [6]: >80%
CC(=O)O[C@H]([C@H](OC(C)=O)[C@H](CI)OC(C)=O)[C@@H](C=O)OC(C)=O [6-iodo-fucose tetraacetate, 6-iodofucose tetraacetate] | 3 | – | – | inhibition at 1000 µM [5]: 30%
C#CC1OC(OC(=O)C(C)(C)C)C(OC(=O)C(C)(C)C)C(OC(=O)C(C)(C)C)C1O (stereo not drawn) [Alkynyl fucose 1,2,3-(trimethylacetate), 5-ethynylarabinose 1,2,3-(trimethylacetate)] | – | – | – | inhibition at 50 µM [2]: ~0%
C=CC1OC(OC(C)=O)C(OC(C)=O)C(OC(C)=O)C1OC(C)=O (stereo not drawn) [5-vinyl fucose tetraacetate, 5-ethylenylarabinose tetraacetate] | – | – | – | inhibition at 50 µM [2]: ~0%; Inhibition at 1 mM [6]: ~4%
CC(=O)OC1O[C@@H](C(F)F)[C@@H](OC(C)=O)[C@@H](OC(C)=O)[C@@H]1OC(C)=O (stereo partly drawn) [6,6-difluorofucose tetraacetate, (3S,4R,5S,6R)-6-(difluoromethyl)tetrahydro-2H-pyran-2,3,4,5-tetrayl Tetraacetate] | – | > 80 | > 80 | –
C=C=C[C@@H]1OC(OC(C)=O)[C@@H](OC(C)=O)[C@H](OC(C)=O)[C@@H]1OC(C)=O (stereo partly drawn) [Allene, (3S,4R,5R,6S)-6-(propa-1,2-dienyl)-tetrahydro-2H-pyran-2,3,4,5-tetrayl Tetraacetate] | – | 23 | 34 | –
